Test results reported in US9447087B2, “Galactokinase inhibitors for the treatment and prevention of associated diseases and disorders” (UNIVERSITY OF UTAH RESEARCH FOUNDATION, priority 2011, dated 2016).

Molecular target: GALK (Homo sapiens (Human), UniProt P51570)
Experiment: primary qHTS assay for inhibitors of GALK (KinaseGlo ATP depletion)
Format: biochemical
Set-up: GALK Assay Efficacy: unit not given here
Conditions: 5 nM GALK, 35 μM ATP, 1 hr incubation
Method: Assay details and protocol: The primary assay monitored ATP depletion using Promega's KinaseGlo™ technology, where ATP levels are measured through luminescence generated from firefly luciferase, a bioluminescent ATP-dependent enzymes. […] This was used as the positive control for the assay. […]

Chain of GALK (P51570 whole entry): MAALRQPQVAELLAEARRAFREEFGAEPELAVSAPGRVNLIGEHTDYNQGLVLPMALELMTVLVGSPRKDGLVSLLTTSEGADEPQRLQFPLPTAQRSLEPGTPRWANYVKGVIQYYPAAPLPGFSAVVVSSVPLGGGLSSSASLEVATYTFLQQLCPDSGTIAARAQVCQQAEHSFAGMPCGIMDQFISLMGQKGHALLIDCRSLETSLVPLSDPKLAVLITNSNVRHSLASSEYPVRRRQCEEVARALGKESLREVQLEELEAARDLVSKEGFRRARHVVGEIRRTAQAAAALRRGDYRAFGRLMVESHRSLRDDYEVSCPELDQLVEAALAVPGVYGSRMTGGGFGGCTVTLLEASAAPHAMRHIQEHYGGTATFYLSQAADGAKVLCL

| IC50 | SMILES | GALK Assay Efficacy |
| --- | --- | --- |
| 32.6 µM | CC1(C)N=C(Nc2nc3ccccc3o2)NC2=C1C(=O)CCC2 [Compound 5] |  |
| 5.17 µM | CC1(C)CC(=O)C2=C(C1)NC(Nc1nc3ccccc3o1)=NC21CCCCC1 [Compound 7] |  |
| 47.3 µM | O=C1CCCC2=C1[C@@]1(CCC(c3ccccc3)C1)N=C(Nc1nc3ccccc3o1)N2 (stereo partly shown) [Compound 12] |  |
| 11.9 µM | CC1CCC2(C1)N=C(Nc1nc3ccccc3o1)NC1=C2C(=O)CCC1 (stereo not shown) [Compound 14] |  |
| 9.43 µM | O=C1CCC2=C1C(c1ccccc1Cl)N=C(Nc1nc3ccccc3o1)N2 (stereo not shown) [Compound 16] |  |
| 0.595 µM | O=C1CCCC2=C1C(c1ccccc1Cl)N=C(Nc1nc3ccccc3o1)N2 (stereo not shown) [Compound 17] |  |
| 2.66 µM | O=C1CCCC2=C1C1(CCSC1)N=C(Nc1nc3ccccc3o1)N2 (stereo not shown) [Compound 21] |  |
| 1.06 µM | O=C1CCCC2=C1C1(CCSCC1)N=C(Nc1nc3ccccc3o1)N2 [Compound 22] |  |
| 33.5 µM | O=C1CCCC2=C1C1(CCCOC1)N=C(Nc1nc3ccccc3o1)N2 (stereo not shown) [Compound 23] |  |
| 68.5 µM | O=C1CCCC2=C1C(c1ccc(Cl)cc1)N=C(Nc1nc3ccccc3o1)N2 (stereo not shown) [Compound 38] |  |
| 12.2 µM | O=C1CCCC2=C1C(c1ccccc1C(F)(F)F)N=C(Nc1nc3ccccc3o1)N2 (stereo not shown) [Compound 39] |  |
| 16.8 µM | O=C1CCCC2=C1C(c1cccc(C(F)(F)F)c1)N=C(Nc1nc3ccccc3o1)N2 (stereo not shown) [Compound 40] |  |
| 0.749 µM | O=C1CCCC2=C1C(c1ccccc1Br)N=C(Nc1nc3ccccc3o1)N2 (stereo not shown) [Compound 41] |  |
| 68.5 µM | O=C1CCCC2=C1C(c1cccc(F)c1)N=C(Nc1nc3ccccc3o1)N2 (stereo not shown) [Compound 42] |  |
| 48.5 µM | COc1ccccc1C1N=C(Nc2nc3ccccc3o2)NC2=C1C(=O)CCC2 (stereo not shown) [Compound 43] |  |
| 18.8 µM | COc1cccc(C2N=C(Nc3nc4ccccc4o3)NC3=C2C(=O)CCC3)c1 (stereo not shown) [Compound 44] |  |
| 61.1 µM | COc1ccc(C2N=C(Nc3nc4ccccc4o3)NC3=C2C(=O)CCC3)cc1 (stereo not shown) [Compound 45] |  |
| 61.1 µM | Cc1cccc(C2N=C(Nc3nc4ccccc4o3)NC3=C2C(=O)CCC3)c1 (stereo not shown) [Compound 46] |  |
| 61.1 µM | Cc1ccc(C2N=C(Nc3nc4ccccc4o3)NC3=C2C(=O)CCC3)cc1 (stereo not shown) [Compound 47] |  |

| IC50 | SMILES | GALK Assay Efficacy |
| --- | --- | --- |
| 61.1 µM | Cc1ccc(C2N=C(Nc3nc4ccccc4o3)NC3=C2C(=O)CCC3)s1 (stereo not shown) [Compound 48] |  |
| 42.1 µM | O=C1CCCC2=C1C(c1ccncc1)N=C(Nc1nc3ccccc3o1)N2 (stereo not shown) [Compound 50] |  |
| 34.3 µM | O=C1CCCC2=C1C(c1ccccc1)N=C(Nc1nc3ccccc3o1)N2 (stereo not shown) [Compound 52] |  |
| 76.9 µM | CN(C)c1ccc(C2N=C(Nc3nc4ccccc4o3)NC3=C2C(=O)CCC3)cc1 (stereo not shown) [Compound 53] |  |
| 15.3 µM | O=C1CCCC2=C1C(c1ccncc1Cl)N=C(Nc1nc3ccccc3o1)N2 (stereo not shown) [Compound 55] |  |
| 2.66 µM | O=C1CCCC2=C1C(c1ccccc1Cl)N=C(Nc1nc3ccccc3o1)N2 (stereo not shown) [Compound 57] |  |
| 6.68 µM | O=C1CCCC2=C1C(c1ncccc1C(F)(F)F)N=C(Nc1nc3ccccc3o1)N2 (stereo not shown) [Compound 58] |  |
| 6.68 µM | O=C1CCCC2=C1C(c1cnccc1C(F)(F)F)N=C(Nc1nc3ccccc3o1)N2 (stereo not shown) [Compound 59] |  |
| 13 µM | O=C1CCCC2=C1C(c1c(Cl)cccc1Cl)N=C(Nc1nc3ccccc3o1)N2 (stereo not shown) [Compound 60] |  |
| 18.8 µM | O=C1CCCC2=C1C(c1cccnc1Cl)N=C(Nc1nc3ccccc3o1)N2 (stereo not shown) [Compound 61] |  |
| 14.6 µM | O=C1CCCC2=C1C(c1cccnc1Br)N=C(Nc1nc3ccccc3o1)N2 (stereo not shown) [Compound 63] |  |
| 36.6 µM | Cn1ncc(Cl)c1C1N=C(Nc2nc3ccccc3o2)NC2=C1C(=O)CCC2 (stereo not shown) [Compound 64] |  |
| 9.19 µM | Cc1ccsc1C1N=C(Nc2nc3ccccc3o2)NC2=C1C(=O)CCC2 (stereo not shown) [Compound 65] |  |
| 1.16 µM | O=C1CCCC2=C1C(c1ccccc1I)N=C(Nc1nc3ccccc3o1)N2 (stereo not shown) [Compound 66] |  |
| 0.651 µM | O=C1CCCC2=C1C(c1ncccc1Br)N=C(Nc1nc3ccccc3o1)N2 (stereo not shown) [Compound 67] |  |
| 1.46 µM | O=C1CCCC2=C1C(c1ccncc1Br)N=C(Nc1nc3ccccc3o1)N2 (stereo not shown) [Compound 68] |  |
| 2.91 µM | O=C1CCCC2=C1C(c1n[nH]cc1Br)N=C(Nc1nc3ccccc3o1)N2 (stereo not shown) [Compound 69] |  |
| 2.91 µM | Cn1cc(Br)c(C2N=C(Nc3nc4ccccc4o3)NC3=C2C(=O)CCC3)n1 (stereo not shown) [Compound 70] |  |
| 20.6 µM | O=C1CCCC2=C1C(c1ccncc1Br)N=C(Nc1nc3ccccc3o1)N2 (stereo not shown) [Compound 71] |  |

| IC50 | SMILES | GALK Assay Efficacy |
| --- | --- | --- |
| 14.6 µM | O=C1CCCC2=C1C(c1ccn[nH]1)N=C(Nc1nc3ccccc3o1)N2 (stereo not shown) [Compound 73] |  |
| 2.91 µM | O=C1CCCC2=C1C(c1n[nH]cc1Cl)NC(Nc1nc3ccccc3o1)=N2 (stereo not shown) [Compound 75] |  |
| 3.26 µM | CC1=C(C(=O)Nc2ccccc2Cl)C(c2ccccc2Br)N=C(Nc2nc3ccccc3o2)N1 (stereo not shown) [Compound 76] |  |
| 5.17 µM | CC1=C(C(=O)Nc2ccc(Cl)cc2)C(c2ccccc2Br)N=C(Nc2nc3ccccc3o2)N1 (stereo not shown) [Compound 77] |  |
| 4.61 µM | CC1=C(C(=O)Nc2ccccc2C)C(c2ccccc2Br)N=C(Nc2nc3ccccc3o2)N1 (stereo not shown) [Compound 78] |  |
| 3.26 µM | COc1ccc(NC(=O)C2=C(C)NC(Nc3nc4ccccc4o3)=NC2c2ccccc2Br)cc1 (stereo not shown) [Compound 81] |  |
| 18.3 µM | CC1=C(C(=O)n2ccc3ccccc32)C(c2ccccc2Br)N=C(Nc2nc3ccccc3o2)N1 (stereo not shown) [Compound 82] |  |
| 10.3 µM | CC1=C(C(=O)N(C)c2ccccc2C)C(c2ccccc2Br)N=C(Nc2nc3ccccc3o2)N1 (stereo not shown) [Compound 83] |  |
| 5.8 µM | CC1=C(C(=O)Nc2ccon2)C(c2ccccc2Br)N=C(Nc2nc3ccccc3o2)N1 (stereo not shown) [Compound 84] |  |
| 3.26 µM | CC1=C(C(=O)Nc2nncs2)C(c2ccccc2Br)N=C(Nc2nc3ccccc3o2)N1 (stereo not shown) [Compound 86] |  |
| 9.19 µM | CC1=C(C(=O)NC2CCCCC2)C(c2ccccc2Br)N=C(Nc2nc3ccccc3o2)N1 (stereo not shown) [Compound 89] |  |
| 9.19 µM | CC1=C(C(=O)Nc2ccccc2)C(c2ccccc2Br)N=C(Nc2nc3ccccc3o2)N1 (stereo not shown) [Compound 90] |  |
| 20.6 µM | CC1=C(C(=O)N(C)C)C(c2ccccc2Br)N=C(Nc2nc3ccccc3o2)N1 (stereo not shown) [Compound 91] |  |
| 6.51 µM | CC1=C(C(=O)NCc2ccccc2)C(c2ccccc2Br)N=C(Nc2nc3ccccc3o2)N1 (stereo not shown) [Compound 92] |  |
| 3.26 µM | CC1=C(C(=O)Nc2nncs2)C2(CCCC2)N=C(Nc2nc3ccccc3o2)N1 [Compound 93] |  |
| 6.51 µM | CC1=C(C(=O)Nc2ccon2)C2(CCCC2)N=C(Nc2nc3ccccc3o2)N1 [Compound 94] |  |
| 25.9 µM | CC1=C(C(=O)Nc2nc3ccccc3s2)C2(CCCC2)N=C(Nc2nc3ccccc3o2)N1 [Compound 95] |  |
| 8.19 µM | CC1=C(C(=O)Nc2ccon2)C(c2nn(C)cc2Cl)N=C(Nc2nc3ccccc3o2)N1 (stereo not shown) [Compound 97] |  |

| SMILES | IC50 | GALK Assay Efficacy |
| --- | --- | --- |
| O=C1CCCC2=C1C1(CCS(=O)(=O)C1)N=C(Nc1nc3ccccc3o1)N2 (stereo not shown) [Compound 24, 2-(benzo[d]oxazol-2-ylamino)-4′,5′,7,8-tetrahydro-1H,2′H-spiro[quinazoline-4,3′-thiophen-1,1-dioxide]-5(6H)-one] | 6.68 µM | 67.583 |
| O=C1CCCC2=C1C(c1cccc(Cl)c1)N=C(Nc1nc3ccccc3o1)N2 (stereo not shown) [Compound 37] | 61.1 µM |  |
| O=C1CCCC2=C1C(c1ccc(F)cc1)N=C(Nc1nc3ccccc3o1)N2 (stereo not shown) [Compound 51] | 61.1 µM |  |
| Cc1cc(C2N=C(Nc3nc4ccccc4o3)NC3=C2C(=O)CCC3)n[nH]1 (stereo not shown) [Compound 74] | 18.3 µM |  |
